Data as given in PubChem BioAssay (NCI).
Values joined by “and” are separate entries in the source; they are usually repeats but may differ in a detail not shown here. Equal entries are not always repeated.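 Test compounds were applied to cells in 96-well plates for 48 hours at 5 doses. Abbreviation: GI50, concentration required for 50% inhibition of growth. At the TGI there is no net growth.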

What was measured:
Experiment in all cases: growth of human tumour cells (NCI), 48 h
RXF 393 renal = tested on: RXF 393 renal
HOP-62 NSCLC = tested on: HOP-62 NSCLC
UACC-62 melanoma = tested on: UACC-62 melanoma
SW-620 colon = tested on: SW-620 colon
CAKI-1 renal = tested on: CAKI-1 renal
A549 NSCLC = tested on: A549 NSCLC
CCRF-CEM leukemia = tested on: CCRF-CEM leukemia
NCI-H460 lung = tested on: NCI-H460 lung
SK-MEL-28 melanoma = tested on: SK-MEL-28 melanoma
NCI-H226 lung = tested on: NCI-H226 lung

SMILES	TGI (RXF 393 renal)	TGI (HOP-62 NSCLC)	TGI (UACC-62 melanoma)	TGI (SW-620 colon)	TGI (CAKI-1 renal)	TGI (A549 NSCLC)	TGI (CCRF-CEM leukemia)	TGI (NCI-H460 lung)	TGI (SK-MEL-28 melanoma)	TGI (NCI-H226 lung)	GI50 (RXF 393 renal)	GI50 (HOP-62 NSCLC)	GI50 (UACC-62 melanoma)	GI50 (SW-620 colon)	GI50 (CAKI-1 renal)	GI50 (A549 NSCLC)	GI50 (CCRF-CEM leukemia)	GI50 (NCI-H460 lung)	GI50 (SK-MEL-28 melanoma)	GI50 (NCI-H226 lung)
COc1ccc(-c2cc(=O)c3c(O)c(O)c(OC)cc3o2)cc1O	> 100 µM	> 100 µM	> 100 µM	> 100 µM	> 100 µM	> 100 µM	> 100 µM	> 100 µM	> 100 µM	> 100 µM										
COc1ccc(-n2nc(C)c3c(Nc4ccc(NC(=O)Nc5cccc(C(F)(F)F)c5)cc4)ncnc32)cc1	2.34 µM	3.45 µM	3.46 µM	5.18 µM	2.96 µM	3.45 µM	8.76 µM	4.12 µM	4.76 µM	4.2 µM	0.846 µM	1.73 µM	1.76 µM	2.14 µM	1.46 µM	1.65 µM	2.3 µM	1.98 µM	1.85 µM	1.84 µM
Cc1cccc(CNc2c3ccccc3nc3ccccc23)c1	3.07 µM	16.1 µM	3.48 µM	5.63 µM	5.03 µM	4.86 µM	15 µM	5.03 µM	4.07 µM	6.02 µM	1.54 µM	3.14 µM	1.61 µM	1.74 µM	1.61 µM	1.88 µM	2.77 µM	1.99 µM	1.89 µM	1.99 µM
COc1ccc(C2=Nn3c(nnc3-c3ccc(F)c(Cl)c3)SC2)cc1	> 100 µM	> 100 µM	> 100 µM	> 100 µM	> 100 µM	> 100 µM	> 100 µM	> 100 µM	> 100 µM	> 100 µM	> 100 µM	> 100 µM	> 100 µM	> 100 µM	> 100 µM	> 100 µM	57.8 µM	> 100 µM	> 100 µM	> 100 µM
CC(=O)c1cc2c(Br)cccc2oc1=O	> 100 µM	> 100 µM	> 100 µM	> 100 µM	> 100 µM	> 100 µM	> 100 µM	> 100 µM	> 100 µM	> 100 µM										
O=[N+]([O-])c1ccc(Sc2cccc[n+]2[O-])c2nonc12	6.32 µM	> 56.4 µM	22.6 µM	3.41 µM	15.4 µM	> 57.2 µM		25.2 µM	6.31 µM	> 65.3 µM	2.12 µM	28 µM	4.58 µM	1.65 µM	4.85 µM	5.61 µM	1.42 µM	3.64 µM	2.47 µM	21 µM
CCC/C=C/C=C/C(=O)OC1/C(=C/C(=O)OC)CC2CC(C(C)O)OC(=O)CC(O)CC3CC(OC(C)=O)C(C)(C)C(O)(CC4C/C(=C/C(=O)OC)CC(/C=C/C(C)(C)C1(O)O2)O4)O3 (stereo not drawn)	10.9 µM and > 12.5 µM	11 µM and > 12.5 µM	> 10.9 µM and 11 µM and > 12.5 µM	> 10.9 µM and 4.91 µM and > 12.5 µM	10.9 µM and 11 µM and > 12.5 µM	8.17 µM and 11 µM and > 12.5 µM	10.9 µM and 11 µM and > 12.5 µM	10.9 µM and 11 µM and > 12.5 µM	> 10.9 µM and 11 µM and > 12.5 µM	> 10.9 µM and 11 µM and > 12.5 µM	10.6 µM and 5.25 µM and > 12.5 µM	10.9 µM and > 12.5 µM	> 10.9 µM and 5.26 µM and > 12.5 µM	> 10.9 µM and 2.99 µM and > 12.5 µM	2.79 µM and 4.05 µM and > 12.5 µM	2.58 µM and 5.95 µM and > 12.5 µM	8.79 µM and 5.35 µM and > 12.5 µM	9.82 µM and 2.81 µM and > 12.5 µM	8.54 µM and > 12.5 µM	> 10.9 µM and 9.74 µM
CC1=CC(=O)NP(=O)(Oc2ccc(Cl)cc2)N1 (stereo not drawn)	> 100 µM	> 100 µM	> 100 µM	> 100 µM	> 100 µM	> 100 µM	> 100 µM	> 100 µM	> 100 µM	> 100 µM										
O=C(O)/C=C/c1c2ccc(=O)c(O)c-2oc2c(O)c(O)ccc12	> 100 µM	61.1 µM	> 100 µM	49.6 µM	> 100 µM	> 100 µM	23.2 µM	> 100 µM	> 100 µM	> 100 µM										
COc1ccc(C2=C(c3ccc(OC)cc3)C(=O)OC2)cc1		24.6 µM	20.6 µM	> 42.5 µM	14.8 µM	> 100 µM	18.5 µM	17.7 µM	> 100 µM	31.4 µM	1.05 µM	2.25 µM	1.3 µM	0.361 µM	0.489 µM	2.57 µM	3.29 µM	0.893 µM	6.29 µM	3.2 µM
O=C(c1ccc(Cl)cc1Cl)N1CCN(C(=O)c2ccc(Cl)cc2Cl)C1=S	43 µM	66.5 µM	31.6 µM	98.2 µM	52.1 µM	43.2 µM	38.5 µM	> 100 µM	39.4 µM	60.1 µM	18.5 µM	23.1 µM	17.3 µM	28.2 µM	22.1 µM	20.1 µM	19.5 µM	35.4 µM	18.4 µM	40.9 µM
O=CNC(Cc1cnc[nH]1)C(=O)O (stereo not drawn)	> 100 µM	> 100 µM	> 100 µM	> 100 µM	> 100 µM	> 100 µM	> 100 µM	> 100 µM	> 100 µM	> 100 µM										
COc1cc(C[C@H]2COC(=O)[C@]2(O)Cc2ccc(OCc3ccccc3)c(OC)c2)ccc1OCc1ccccc1	> 100 µM	> 100 µM	> 100 µM	> 100 µM	> 100 µM	> 100 µM	> 100 µM	> 100 µM	> 100 µM	> 100 µM	40.3 µM	> 100 µM	40.5 µM	> 100 µM	19.4 µM	7.13 µM	> 100 µM	9.77 µM	> 100 µM	33.7 µM
CC(NCCN(C)C)C1CCC2C3CCc4cc(O)ccc4C3CCC12C (stereo not drawn)	3.69 µM	8.7 µM	3.45 µM	12.7 µM	4.32 µM	13.6 µM	3.47 µM	4.68 µM	5.29 µM	34 µM										
COc1cc(/C=C/C(=O)c2c(C)n([O-])c3ccccc3[n+]2=O)cc(OC)c1OC	20.4 µM	24.9 µM	23.3 µM	17.1 µM	20.7 µM	21.6 µM	23.3 µM	13.1 µM	28.9 µM	34 µM	5.85 µM	12.4 µM	11.3 µM	4.99 µM	7.61 µM	8.69 µM	3.66 µM	3.63 µM	11.2 µM	15.2 µM
